This note sets out measurements from the supplement of paper PMC10307832.

Experiment in all cases: relative viability (nuclei count vs DMSO), 5 days (fraction); higher = more cells survive
Compound in the assay “Bortezomib + Alpelisib”: CC(C)C[C@H](NC(=O)[C@H](Cc1ccccc1)NC(=O)c1cnccn1)B(O)O [Bortezomib] + Cc1nc(NC(=O)N2CCC[C@H]2C(N)=O)sc1-c1ccnc(C(C)(C)C(F)(F)F)c1 [Alpelisib] (partner 2 µM)
In short, it runs like this: (§1)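 A single step with final 0.05% Triton X-100, 1% formaldehyde and 1 ug/ml Hoechst fixed the cells and stained nuclei 5 days after treatment. Lung cancer cell lines in 1536-well plates had been treated by pin tool the day after seeding with one drug alone or a fixed anchor-drug dose plus five library-drug doses (not always all listed) in √10 steps, and nuclei were counted on 4× images. Relative viability is the ratio of nuclei in treated wells to nuclei in vehicle wells, taken as the median of duplicate plates.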

Compound in the assay “Obatoclax + Alpelisib”: COC1=CC(c2cc3ccccc3[nH]2)=N/C1=C\c1[nH]c(C)cc1C [Obatoclax] + Cc1nc(NC(=O)N2CCC[C@H]2C(N)=O)sc1-c1ccnc(C(C)(C)C(F)(F)F)c1 [Alpelisib] (partner 2 µM)
In short, it runs like this: as §1

Compound in the assay “Bortezomib + Lapatinib”: CC(C)C[C@H](NC(=O)[C@H](Cc1ccccc1)NC(=O)c1cnccn1)B(O)O [Bortezomib] + CS(=O)(=O)CCNCc1ccc(-c2ccc3ncnc(Nc4ccc(OCc5cccc(F)c5)c(Cl)c4)c3c2)o1 [Lapatinib] (partner 2 µM)
The method, boiled down:
as §1

Compound in the assay “Obatoclax + Dasatinib”: COC1=CC(c2cc3ccccc3[nH]2)=N/C1=C\c1[nH]c(C)cc1C [Obatoclax] + Cc1nc(Nc2ncc(C(=O)Nc3c(C)cccc3Cl)s2)cc(N2CCN(CCO)CC2)n1 [Dasatinib] (partner 0.075 µM)
In short, it runs like this:
as §1

As to A549, the relative viability with Bortezomib + Alpelisib (first compound 0.0002 µM) is 0.769; with Bortezomib + Alpelisib (first compound 0.000632 µM), 0.706; with Bortezomib + Alpelisib (first compound 0.002 µM) it was 0.756; with Bortezomib + Alpelisib (first compound 0.006325 µM), 0.055; with Bortezomib + Alpelisib (first compound 0.02 µM), 0.0365; in the assay with Obatoclax + Alpelisib (first compound 0.01 µM), 0.76. The relative viability stood at 0.876 with Obatoclax + Alpelisib (first compound 0.03162 µM); 0.748 with Obatoclax + Alpelisib (first compound 0.1 µM); 0.298 with Obatoclax + Alpelisib (first compound 0.3162 µM); 0.0816 with Obatoclax + Alpelisib (first compound 1 µM); 0.981 with Bortezomib + Lapatinib (first compound 0.0002 µM); 0.872 with Bortezomib + Lapatinib (first compound 0.000632 µM). The relative viability in the assay with Bortezomib + Lapatinib (first compound 0.002 µM) came to 0.957; with Bortezomib + Lapatinib (first compound 0.006325 µM), 0.0567; with Bortezomib + Lapatinib (first compound 0.02 µM), 0.0601.
For the cell line HCC-44, the relative viability with Bortezomib + Alpelisib (first compound 0.0002 µM) worked out at 0.831; in the assay with Bortezomib + Alpelisib (first compound 0.000632 µM), 0.776; with Bortezomib + Alpelisib (first compound 0.002 µM), 0.84; with Bortezomib + Alpelisib (first compound 0.006325 µM), 0.0994; in the assay with Bortezomib + Alpelisib (first compound 0.02 µM), 0.115; with Obatoclax + Alpelisib (first compound 0.01 µM), 0.84. In addition, the relative viability with Obatoclax + Alpelisib (first compound 0.03162 µM) came to 0.706; with Obatoclax + Alpelisib (first compound 0.1 µM) it was 0.801; with Obatoclax + Alpelisib (first compound 0.3162 µM) it was 0.607; with Obatoclax + Alpelisib (first compound 1 µM), 0.21; in the assay with Bortezomib + Lapatinib (first compound 0.0002 µM), 0.977; with Bortezomib + Lapatinib (first compound 0.000632 µM), 1.02. In addition, the relative viability amounted to 0.953 with Bortezomib + Lapatinib (first compound 0.002 µM), 0.658 with Bortezomib + Lapatinib (first compound 0.006325 µM) and 0.118 with Bortezomib + Lapatinib (first compound 0.02 µM).
LCLC-103H: the relative viability with Bortezomib + Alpelisib (first compound 0.0002 µM) stood at 0.955; in the assay with Bortezomib + Alpelisib (first compound 0.000632 µM), 0.893; in the assay with Bortezomib + Alpelisib (first compound 0.002 µM) it was 1.02; in the assay with Bortezomib + Alpelisib (first compound 0.006325 µM), 1.07; in the assay with Bortezomib + Alpelisib (first compound 0.02 µM), 0.166; with Obatoclax + Alpelisib (first compound 0.01 µM), 0.938. In addition, the relative viability in the assay with Obatoclax + Alpelisib (first compound 0.03162 µM) was 0.907; with Obatoclax + Alpelisib (first compound 0.1 µM), 0.97; with Obatoclax + Alpelisib (first compound 0.3162 µM), 0.961; with Obatoclax + Alpelisib (first compound 1 µM) it was 1.02; with Obatoclax + Dasatinib (first compound 0.01 µM) it was 0.458; in the assay with Obatoclax + Dasatinib (first compound 0.03162 µM) it was 0.464. Besides, the relative viability with Obatoclax + Dasatinib (first compound 0.1 µM) came out at 0.411; with Obatoclax + Dasatinib (first compound 0.3162 µM) it was 0.517; with Obatoclax + Dasatinib (first compound 1 µM), 0.53.
In the case of IA-LM, the relative viability with Bortezomib + Alpelisib (first compound 0.0002 µM) amounted to 0.773; with Bortezomib + Alpelisib (first compound 0.000632 µM), 0.669; with Bortezomib + Alpelisib (first compound 0.002 µM), 0.561; with Bortezomib + Alpelisib (first compound 0.006325 µM) it was 0.0626; in the assay with Bortezomib + Alpelisib (first compound 0.02 µM), 0.0159; with Obatoclax + Alpelisib (first compound 0.01 µM) it was 0.843. Also, the relative viability came out at 0.743 in the assay with Obatoclax + Alpelisib (first compound 0.03162 µM); 0.612 with Obatoclax + Alpelisib (first compound 0.1 µM); 0.327 with Obatoclax + Alpelisib (first compound 0.3162 µM); 0.0686 in the assay with Obatoclax + Alpelisib (first compound 1 µM); 0.828 with Bortezomib + Lapatinib (first compound 0.0002 µM); 0.851 with Bortezomib + Lapatinib (first compound 0.000632 µM). Moreover, the relative viability with Bortezomib + Lapatinib (first compound 0.002 µM) came to 0.432; with Bortezomib + Lapatinib (first compound 0.006325 µM), 0.0336; with Bortezomib + Lapatinib (first compound 0.02 µM), 0.0551.
For Calu-6, the relative viability is 0.961 with Bortezomib + Alpelisib (first compound 0.0002 µM); 1.01 with Bortezomib + Alpelisib (first compound 0.000632 µM); 1.04 in the assay with Bortezomib + Alpelisib (first compound 0.002 µM); 0.123 in the assay with Bortezomib + Alpelisib (first compound 0.006325 µM); 0.0909 with Bortezomib + Alpelisib (first compound 0.02 µM); 0.899 in the assay with Obatoclax + Alpelisib (first compound 0.01 µM). Besides, the relative viability with Obatoclax + Alpelisib (first compound 0.03162 µM) was determined as 1.01; in the assay with Obatoclax + Alpelisib (first compound 0.1 µM), 0.898; with Obatoclax + Alpelisib (first compound 0.3162 µM), 0.677; in the assay with Obatoclax + Alpelisib (first compound 1 µM), 0.205; in the assay with Bortezomib + Lapatinib (first compound 0.0002 µM) it was 0.961; in the assay with Bortezomib + Lapatinib (first compound 0.000632 µM), 1.03. Besides, the relative viability in the assay with Bortezomib + Lapatinib (first compound 0.002 µM) turned out to be 1.02; with Bortezomib + Lapatinib (first compound 0.006325 µM) it was 0.138; with Bortezomib + Lapatinib (first compound 0.02 µM), 0.109.
As to NCI-H1650, the relative viability with Bortezomib + Lapatinib (first compound 0.0002 µM) was found to be 0.279; in the assay with Bortezomib + Lapatinib (first compound 0.000632 µM), 0.482; with Bortezomib + Lapatinib (first compound 0.002 µM), 0.154; with Bortezomib + Lapatinib (first compound 0.006325 µM), 0.17; in the assay with Bortezomib + Lapatinib (first compound 0.02 µM) it was 0.181; with Obatoclax + Dasatinib (first compound 0.01 µM) it was 0.304. The relative viability was 0.329 with Obatoclax + Dasatinib (first compound 0.03162 µM), 0.396 with Obatoclax + Dasatinib (first compound 0.1 µM), 0.271 with Obatoclax + Dasatinib (first compound 0.3162 µM) and 0.179 in the assay with Obatoclax + Dasatinib (first compound 1 µM).
In the case of NCI-H1623, the relative viability is 0.548 with Obatoclax + Dasatinib (first compound 0.01 µM); 0.502 with Obatoclax + Dasatinib (first compound 0.03162 µM); 0.499 with Obatoclax + Dasatinib (first compound 0.1 µM); 0.572 with Obatoclax + Dasatinib (first compound 0.3162 µM); 0.52 in the assay with Obatoclax + Dasatinib (first compound 1 µM).
For the cell line NCI-H1299, the relative viability came out at 1.02 in the assay with Bortezomib + Alpelisib (first compound 0.0002 µM); 1.07 in the assay with Bortezomib + Alpelisib (first compound 0.000632 µM); 1.08 with Bortezomib + Alpelisib (first compound 0.002 µM); 0.89 with Bortezomib + Alpelisib (first compound 0.006325 µM); 0.304 with Bortezomib + Alpelisib (first compound 0.02 µM); 1.01 in the assay with Obatoclax + Alpelisib (first compound 0.01 µM). In addition, the relative viability in the assay with Obatoclax + Alpelisib (first compound 0.03162 µM) was 1.1; in the assay with Obatoclax + Alpelisib (first compound 0.1 µM), 0.985; with Obatoclax + Alpelisib (first compound 0.3162 µM) it was 1.04; with Obatoclax + Alpelisib (first compound 1 µM) it was 1; with Bortezomib + Lapatinib (first compound 0.0002 µM), 0.959; with Bortezomib + Lapatinib (first compound 0.000632 µM), 0.93. The relative viability is 0.933 with Bortezomib + Lapatinib (first compound 0.002 µM), 0.463 with Bortezomib + Lapatinib (first compound 0.006325 µM) and 0.16 with Bortezomib + Lapatinib (first compound 0.02 µM).
As for NCI-H522, the relative viability with Obatoclax + Dasatinib (first compound 0.01 µM) stood at 1.03; in the assay with Obatoclax + Dasatinib (first compound 0.03162 µM), 0.757; with Obatoclax + Dasatinib (first compound 0.1 µM), 0.696; with Obatoclax + Dasatinib (first compound 0.3162 µM), 0.851; in the assay with Obatoclax + Dasatinib (first compound 1 µM), 0.573.
On the same counts, the results for NCI-H2342 are 0.365, 0.303, 0.347, 0.285 and 0.302.
On the same counts, the results for SW 900 are 0.637, 0.627, 0.543, 0.206 and 0.153.
For the cell line NCI-H1703, the relative viability with Bortezomib + Alpelisib (first compound 0.0002 µM) worked out at 0.32; in the assay with Bortezomib + Alpelisib (first compound 0.000632 µM) it was 0.256; with Bortezomib + Alpelisib (first compound 0.002 µM), 0.131; with Bortezomib + Alpelisib (first compound 0.006325 µM) it was 0.134; in the assay with Bortezomib + Alpelisib (first compound 0.02 µM) it was 0.0835; in the assay with Obatoclax + Alpelisib (first compound 0.01 µM), 0.41. For the same cell line, the relative viability with Obatoclax + Alpelisib (first compound 0.03162 µM) was 0.344; in the assay with Obatoclax + Alpelisib (first compound 0.1 µM), 0.412; in the assay with Obatoclax + Alpelisib (first compound 0.3162 µM), 0.321; in the assay with Obatoclax + Alpelisib (first compound 1 µM) it was 0.276; in the assay with Bortezomib + Lapatinib (first compound 0.0002 µM), 1.23; with Bortezomib + Lapatinib (first compound 0.000632 µM), 0.947. Further, the results for the relative viability with Bortezomib + Lapatinib (first compound 0.002 µM), in the assay with Bortezomib + Lapatinib (first compound 0.006325 µM) and with Bortezomib + Lapatinib (first compound 0.02 µM) were 0.184, 0.135 and 0.145, respectively.
On to ChaGo-K-1, for which the relative viability in the assay with Obatoclax + Dasatinib (first compound 0.01 µM) is 0.637; with Obatoclax + Dasatinib (first compound 0.03162 µM), 0.582; with Obatoclax + Dasatinib (first compound 0.1 µM), 0.502; with Obatoclax + Dasatinib (first compound 0.3162 µM), 0.584; with Obatoclax + Dasatinib (first compound 1 µM), 0.644.
